Data published in patent publication US12570675B2, “Boronic acid compounds” (LG CHEM, LTD., priority 2020, dated 2026).

These compounds were tested against Proteasome chymotrypsin-like activity (S26 protein from RPMI8226 cells) (Homo sapiens, UniProt P28074). Conditions: S26 protein from RPMI8226 cell extract 2 ug/well, substrate 20 uM, 37° C., 90 minutes; read-out: Proteasome chymotrypsin-like activity inhibition IC50.
Format: biochemical
Method: The abilities to inhibit the proteasome activity of the compounds described in the Examples of the present invention and boronic acid drugs were evaluated as follows.
RPMI8226 cells, which is a multiple myeloma cell line, were cultured and then separated by a centrifuge, and washed twice with phosphate buffered saline (PBS). 20 mM of a tris-HCl (pH 8.0) buffer solution was added to the washed cells, and the cells were disrupted by a homogenizer and centrifuged to obtain S26 protein from the supernatant. Suc-Leu-Leu-Val-Tyr-AMC, for a fluorogenic substrate for the chymotrypsin-like activity of the proteasome, and Z-Leu-Leu-Glu-AMC, for a fluorogenic substrate for the caspase-like activity, were purchased from Calbiochem, EMD Millipore and used. Into each well of a 96-well plate (opaque, black round bottom), 20 ul of the S26 protein (final RPMI8226 cell extract concentration: 2 ug/well), 10 ul of S26 proteasome inhibitor serially diluted from 10 uM (final DMSO concentration: 0.5%), and 20 ul of the fluorogenic substrate for the proteasome chymotrypsin-like or caspase-like activity (final concentration: 20 uM) were added and mixed and allowed to react in a 37° C. incubator for 90 minutes. The fluorescence of the fluorogenic substrate was measured by FlexStation II Fluorometer (Molecular Devices). The fluorescence inhibited by the compound diluted at each concentration was measured as the relative percentage value for the amount obtained from the treatment only with the S26 protein and the fluorogenic substrate. IC50 (inhibitory concentration 50) was expressed in terms of a concentration that inhibits 50% of the maximum fluorescence induced by the fluorogenic substrate.

Sequence of Proteasome chymotrypsin-like activity (S26 protein from RPMI8226 cells) (P28074 60-263 limits assumed): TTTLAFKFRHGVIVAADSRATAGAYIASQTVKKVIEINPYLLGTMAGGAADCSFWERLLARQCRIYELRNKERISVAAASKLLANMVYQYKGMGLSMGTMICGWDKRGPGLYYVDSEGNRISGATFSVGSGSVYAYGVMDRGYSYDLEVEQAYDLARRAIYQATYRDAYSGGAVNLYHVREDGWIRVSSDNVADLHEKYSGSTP

| SMILES | IC50 [nM] |
| --- | --- |
| CC(C)C[C@H](NC(=O)C1CC(c2ccccc2)=NO1)B(O)O (stereo partly drawn) [Example 1, ((1R)-3-methyl-1-(3-phenyl-4,5-dihydroisoxazol-5-carboxamido)butyl)boronic acid] | < 500 |
| CC(C)C[C@H](NC(=O)C1CC(c2cnccn2)=NO1)B(O)O (stereo partly drawn) [Example 2, ((1R)-3-methyl-1-(3-(pyrazin-2-yl)-4,5-dihydroisoxazol-5-carboxamido)butyl)boronic acid] | < 1000 |
| CC(C)C[C@H](NC(=O)C1CC(c2cc(Cl)ccc2Cl)=NO1)B(O)O (stereo partly drawn) [Example 3, ((1R)-1-(3-(2,5-dichlorophenyl)-4,5-dihydroisoxazol-5-carboxamido)-3-methylbutyl)boronic acid] | < 250 |
| CCC1(C(=O)N[C@@H](CC(C)C)B(O)O)CC(c2ccccc2)=NO1 (stereo partly drawn) [Example 4, ((1R)-1-(5-ethyl-3-phenyl-4,5-dihydroisoxazol-5-carboxamido)-3-methylbutyl)boronic acid] | > 1000 |
| CC(C)C[C@H](NC(=O)C1(C)CC(c2ccccc2)=NO1)B(O)O (stereo partly drawn) [Example 5, ((1R)-3-methyl-1-(5-methyl-3-phenyl-4,5-dihydroisoxazol-5-carboxamido)butyl)boronic acid] | > 1000 |
| CCC1(C(=O)N[C@@H](CC(C)C)B(O)O)CC(c2cnccn2)=NO1 (stereo partly drawn) [Example 6, ((1R)-1-(5-ethyl-3-(pyrazin-2-yl)-4,5-dihydroisoxazol-5-carboxamido)-3-methylbutyl)boronic acid] | > 1000 |
| CC(C)C[C@H](NC(=O)[C@]1(Cc2ccccc2)CC(c2ccccc2)=NO1)B(O)O [Example 7, ((R)-1-((S)-5-benzyl-3-phenyl-4,5-dihydroisoxazol-5-carboxamido)-3-methylbutyl)boronic acid] | < 500 |
| CC(C)C[C@H](NC(=O)C1CC(Cc2ccccc2)=NO1)B(O)O (stereo partly drawn) [Example 8, ((1R)-1-(3-benzyl-4,5-dihydroisoxazol-5-carboxamido)-3-methylbutyl)boronic acid] | < 250 |
| CC(C)C[C@H](NC(=O)C1CC(C2CCCCC2)=NO1)B(O)O (stereo partly drawn) [Example 9, ((1R)-1-(3-cyclohexyl-4,5-dihydroisoxazol-5-carboxamido)-3-methylbutyl)boronic acid] | < 500 |
| CC(C)C[C@H](NC(=O)C1CC(C2CC2)=NO1)B(O)O (stereo partly drawn) [Example 10, ((1R)-1-(3-cyclopropyl-4,5-dihydroisoxazol-5-carboxamido)-3-methylbutyl)boronic acid] | < 500 |
| CC(C)C[C@H](NC(=O)C1CC(CCc2ccccc2)=NO1)B(O)O (stereo partly drawn) [Example 11, ((1R)-3-methyl-1-(3-penetyl-4,5-dihydroisoxazol-5-carboxamido)butyl)boronic acid] | < 250 |
| CC(C)C[C@H](NC(=O)C1CC(c2nccc3ccccc23)=NO1)B(O)O (stereo partly drawn) [Example 12, ((1R)-1-(3-(isoquinolin-1-yl)-4,5-dihydroisoxazol-5-carboxamido)-3-methylbutyl)boronic acid] | < 250 |
| CC(C)C[C@H](NC(=O)[C@]1(C(C)C)CC(c2nccc3ccccc23)=NO1)B(O)O [Example 13, ((R)-1-((R)-5-isopropyl-3-(isoquinolin-1-yl)-4,5-dihydroisoxazol-5-carboxamido)-3-methylbutyl)boronic acid] | > 1000 |
| CC(C)C[C@H](NC(=O)C1CC(c2cccc(C(C)(C)C)c2)=NO1)B(O)O (stereo partly drawn) [Example 14, ((1R)-1-(3-(3-(tert-butyl)phenyl)-4,5-dihydroisoxazol-5-carboxamido)-3-methylbutyl)boronic acid] | < 250 |
| CC(C)C[C@H](NC(=O)C1CC(c2ccc(C(C)(C)C)cc2)=NO1)B(O)O (stereo partly drawn) [Example 15, ((1R)-1-(3-(4-(tert-butyl)phenyl)-4,5-dihydroisoxazol-5-carboxamido)-3-methylbutyl)boronic acid] | < 250 |
| CC(=O)Nc1ccc(C2=NOC(C(=O)N[C@@H](CC(C)C)B(O)O)C2)cc1 (stereo partly drawn) [Example 16, ((1R)-1-(3-(4-acetamidophenyl)-4,5-dihydroisoxazol-5-carboxamido)-3-methylbutyl)boronic acid] | < 250 |
| CC(C)C[C@H](NC(=O)C1CC(c2ccc3ccccc3c2)=NO1)B(O)O (stereo partly drawn) [Example 17, ((1R)-3-methyl-1-(3-(naphthalen-2-yl)-4,5-dihydroisoxazol-5-carboxamido)butyl)boronic acid] | < 500 |
| CC(C)C[C@H](NC(=O)C1CC(Cc2ccc3ccccc3c2)=NO1)B(O)O (stereo partly drawn) [Example 18, ((1R)-3-methyl-1-(3-(naphthalen-2-ylmethyl)-4,5-dihydroisoxazol-5-carboxamido)butyl)boronic acid] | < 500 |

| SMILES | IC50 [nM] |
| --- | --- |
| CC(C)C[C@H](NC(=O)C1CC(c2cccc3ccccc23)=NO1)B(O)O (stereo partly drawn) [Example 19, ((1R)-3-methyl-1-(3-(naphthalen-1-yl)-4,5-dihydroisoxazol-5-carboxamido)butyl)boronic acid] | < 100 |
| CC(C)C[C@H](NC(=O)C1CC(c2cccc(-c3ccccc3)c2)=NO1)B(O)O (stereo partly drawn) [Example 20, ((1R)-1-(3-([1,1′-biphenyl]-3-yl)-4,5-dihydroisoxazol-5-carboxamido)-3-methylbutyl)boronic acid] | < 250 |
| CC(C)C[C@H](NC(=O)C1CC(c2ccc3ccccc3n2)=NO1)B(O)O (stereo partly drawn) [Example 21, ((1R)-3-methyl-1-(3-(quinolin-2-yl)-4,5-dihydroisoxazol-5-carboxamido)butyl)boronic acid] | < 250 |
| CC(C)C[C@H](NC(=O)C1CC(c2cc3ccccc3cn2)=NO1)B(O)O (stereo partly drawn) [Example 22, ((1R)-1-(3-(isoquinolin-3-yl)-4,5-dihydroisoxazol-5-carboxamido)-3-methylbutyl)boronic acid] | < 250 |
| CC(C)C[C@H](NC(=O)C1CC(c2ccnc3ccccc23)=NO1)B(O)O (stereo partly drawn) [Example 23, ((1R)-3-methyl-1-(3-(quinolin-4-yl)-4,5-dihydroisoxazol-5-carboxamido)butyl)boronic acid] | < 250 |
| CC(C)C[C@H](NC(=O)[C@]1(Cc2ccccc2)CC(c2cccc(C(C)(C)C)c2)=NO1)B(O)O [Example 24, ((R)-1-((S)-5-benzyl-3-(3-(tert-butyl)phenyl)-4,5-dihydroisoxazol-5-carboxamido)-3-methylbutyl)boronic acid] | < 500 |
| CC(C)C[C@H](NC(=O)C1CC(c2cccc(-c3ccccc3)n2)=NO1)B(O)O (stereo partly drawn) [Example 25, ((1R)-3-methyl-1-(3-(6-phenylpyridin-2-yl)-4,5-dihydroisoxazol-5-carboxamido)butyl)boronic acid] | < 100 |
| CC(C)C[C@H](NC(=O)C1CC(c2ccc(-c3ccccn3)cc2)=NO1)B(O)O (stereo partly drawn) [Example 26, ((1R)-3-methyl-1-(3-(4-(pyridin-2-yl)phenyl)-4,5-dihydroisoxazol-5-carboxamido)butyl)boronic acid] | < 50 |
| CC(C)C[C@H](NC(=O)C1CC(c2ccc(-c3ccccc3)cc2)=NO1)B(O)O (stereo partly drawn) [Example 27, ((1R)-1-(3-([1,1′-biphenyl]-4-yl)-4,5-dihydroisoxazol-5-carboxamido)-3-methylbutyl)boronic acid] | < 250 |
| CC(C)C[C@H](NC(=O)C1CC(c2ccc(-c3cccc(F)c3)cn2)=NO1)B(O)O (stereo partly drawn) [Example 28, ((1R)-1-(3-(5-(3-fluorophenyl)pyridin-2-yl)-4,5-dihydroisoxazol-5-carboxamido)-3-methylbutyl)boronic acid] | < 250 |
| CC(C)C[C@H](NC(=O)C1CC(c2cnc3ccccc3c2)=NO1)B(O)O (stereo partly drawn) [Example 29, ((1R)-3-methyl-1-(3-(quinolin-3-yl)-4,5-dihydroisoxazol-5-carboxamido)butyl)boronic acid] | < 500 |
| CC(C)C[C@H](NC(=O)C1CC(c2ccc3ncccc3c2)=NO1)B(O)O (stereo partly drawn) [Example 30, ((1R)-3-methyl-1-(3-(quinolin-6-yl)-4,5-dihydroisoxazol-5-carboxamido)butyl)boronic acid] | < 1000 |
| CC(C)C[C@H](NC(=O)C1CC(c2ccc(-c3cccnc3)cc2)=NO1)B(O)O (stereo partly drawn) [Example 31, ((1R)-3-methyl-1-(3-(4-(pyridin-3-yl)phenyl)-4,5-dihydroisoxazol-5-carboxamido)butyl)boronic acid] | < 50 |
| CC(C)C[C@H](NC(=O)C1CC(c2ccc(-c3ccccc3)nc2)=NO1)B(O)O (stereo partly drawn) [Example 32, ((1R)-3-methyl-1-(3-(6-phenylpyridin-3-yl)-4,5-dihydroisoxazol-5-carboxamido)butyl)boronic acid] | < 100 |
| CC(C)C[C@H](NC(=O)C1CC(c2cncc(-c3ccccc3)c2)=NO1)B(O)O (stereo partly drawn) [Example 33, ((1R)-3-methyl-1-(3-(5-phenylpyridin-3-yl)-4,5-dihydroisoxazol-5-carboxamido)butyl)boronic acid] | < 100 |
| CC(C)C[C@H](NC(=O)C1CC(c2cccc(-c3ccccn3)c2)=NO1)B(O)O (stereo partly drawn) [Example 34, ((1R)-3-methyl-1-(3-(3-(pyridin-2-yl)phenyl)-4,5-dihydroisoxazol-5-carboxamido)butyl)boronic acid] | < 100 |
| CC(C)C[C@H](NC(=O)C1(Cc2ccccc2)CC(c2cccc(-c3nccc4ccccc34)c2)=NO1)B(O)O (stereo partly drawn) [Example 36, ((1R)-1-(5-benzyl-3-(3-(isoquinolin-1-yl)phenyl)-4,5-dihydroisoxazol-5-carboxamido)-3-methylbutyl)boronic acid] | < 250 |
